Patent US7645610B2, “Hepatocyte precursor cell lines” (Massachusetts Institute of Technology, priority 2002, dated 2010)

Assays:
Format in all cases: cell-based, rat
Lig-1 cells [1] = test: Colony formation efficiency, Lig-1
Lig-2 cells = test: Colony formation efficiency, Lig-2
Lig-3 cells [2] = test: Colony formation efficiency, Lig-3
Lig-4 cells = test: Colony formation efficiency, Lig-4
Lig-6 cells = test: Colony formation efficiency, Lig-6
Lig-7 cells = test: Colony formation efficiency, Lig-7
Lig-8 cells [3] = test: Colony formation efficiency, Lig-8
Lig-9 cells [4] = test: Colony formation efficiency, Lig-9
Lig-13 cells [5] = test: Colony formation efficiency, Lig-13
Lig-14 cells = test: Colony formation efficiency, Lig-14
Lig-15 cells = test: Colony formation efficiency, Lig-15
Xs-derived cell lines = test: Colony formation efficiency, Xs-derived lines as a group; settings: n=8
Excerpt: There was a marked difference in the cell kinetics properties of early passage conventional lines (Lig-1 to -3 in Table 1) and Xs-derived lines (Lig-4 to -15 in Table 1). […] The estimated mean increase in colony formation efficiency for Xs-derived cell lines in Xs-supplemented medium was 11-fold (n=8), ranging from a 10% increase to a 40-fold increase (Lig-13 in Table 1; p<0.0001). The growth of conventional cell lines was unaffected by Xs even when the Xs concentration was doubled (data not shown). [table]

conventional cell lines = test: Growth of conventional cell lines with Xs; settings: even when the Xs concentration was doubled (data not shown)
Excerpt: There was a marked difference in the cell kinetics properties of early passage conventional lines (Lig-1 to -3 in Table 1) and Xs-derived lines (Lig-4 to -15 in Table 1). […] The estimated mean increase in colony formation efficiency for Xs-derived cell lines in Xs-supplemented medium was 11-fold (n=8), ranging from a 10% increase to a 40-fold increase (Lig-13 in Table 1; p<0.0001). The growth of conventional cell lines was unaffected by Xs even when the Xs concentration was doubled (data not shown).

Lig-9 cells [6] = test: Fc(t) assay for asymmetric cell kinetics, Lig-9
Procedure: To initiate the assay, 100 cells were plated in 75-cm^2 flasks. After a 16-hour growth period, pairs of new daughter cells were identified under the microscope, and their positions marked for serial examination. Thereafter, the marked microcolonies were examined at roughly ⅓ GT intervals for at least 2 generations. At each examination, the fraction of cells that divided during the previous interval was calculated as described (Sherley et al., 1995a). The estimated cell GT of examined lines was determined simultaneously as described (Sherley et al., 1995ab).
A previously described serial colony formation analyses (the “Fc[t] assay”; Sherley et al., 1995a) was used to quantify the degree of asymmetric cell kinetics by Xs-derived cell lines. The Fc(t) assay quantifies the accumulation rate of cells in micro-colonies examined by serial phase microscopy at intervals of less than one GT from the 2-cell stage (Sherley et al., 1995a). Fc(t) is calculated by summing the fractions of dividing cells determined in each interval and dividing by the total number of GTs examined. When cells divide with symmetric kinetics, the value of Fc(t) approaches 1.0, regardless of the length of the examination period. For asymmetric kinetics, in which one non-dividing daughter is produced at each cell division, Fc(t) is a declining flnction that approaches […] with increasing exam time. […]

Lig-8 cells [7] = test: Daughter pair analysis (DPA), Lig-8; settings: Xs added, 16% in the absence of Xs, n=58 pairs
Procedure: (§1) Into 10-cm diameter culture dishes, an estimated 1750 cells were plated in DMEM-10% dFBS, supplemented at the Xs concentration used for derivation, and cultured for 16 hours. Medium was then replaced with either Xs-free medium or medium containing 100 μM Xs, and cells were cultured for an additional 48 h (GT=60 h). Bromo-5-deoxyuridine (BrdU) was then added to the cultures to a concentration of 5 μM for 5 hours. Detection of incorporated BrdU was performed using primary antibody Bu1-75 (Harlan), and a biotinylated secondary antibody (Vector Laboratories) with avidin-fluorescein visualization. Nuclei were detected by staining with 0.5 μg/ml DAPI (Molecular Probes). Images were captured using a Nikon TE300 microscope, Orca camera, and Openlab software (Improvision). The assay is called a “daughter pair analysis” (DPA). To perform the DPA, cells were plated in Xs-containing medium at microcolony density. After allowing 4 to 5 hours for cell adherence, parallel cultures were replaced with fresh medium that was either Xs-supplemented or Xs-free. After allowing time for cell divisions to produce “daughter pairs”, the cells were cultured for 4 hours with the thymidine analogue bromodeoxyuridine (BrdU). Cells were then fixed and evaluated for BrdU incorporation by in situ immunofluorescence.

Lig-13 cells [8] = test: Daughter pair analysis (DPA), Lig-13; settings: independent of Xs concentration
Procedure: as §1

Lig-8 cells [9] = test: Differentiation marker expression, Xs-free vs Xs-supplemented, Lig-8; set-up: key: −: no expression detected; +/−: weak expression; +: expression detected; !: increased expression in Xs-free conditions; *: no increased expression in Xs-free conditions
Lig-13 cells [10] = test: Differentiation marker expression, Xs-free vs Xs-supplemented, Lig-13; set-up: key: −: no expression detected; +/−: weak expression; +: expression detected; !: increased expression in Xs-free conditions; *: no increased expression in Xs-free conditions
Procedure: To prepare cell lysates, cells were cultured until 95% confluent. After washing once with ice cold PBS, the cells were solubilized on ice in ice-cold lysis buffer (RIPA buffer; Hinds et al., 1987). The cell lysates were clarified by centrifugation at 13,000 rpm (Eppendorf™ microfuge) for 30 minutes at 4°0 C. and stored at −70°0 C. until further analysis. Soluble protein in lysates was quantified using the Bio-Rad DC™ assay. Twenty micrograms of cell lysates or 25 μl of culture medium samples were separated by SDS-PAGE (8-12% polyacrylamide) and analyzed for specific proteins by the following immunoblot procedure. Electrophoresed proteins were transferred to Hybond ECL membranes in Tris-Glycine-Methanol buffer (25 mM Tris-HCl, pH 7.5, 190 mM glycine, 20% methanol) for 1 hour at 100 volts at room temperature. Membranes were then stained with Ponceau S (0.5%) to verify uniform protein transfer and then blocked with Tris-buffered saline, 5% non-fat dried milk, 0.1% Tween-20 at room temperature for 1 hour. Following three 10-minute washes at room temperature in Tris-buffered saline, 0.1% Tween-20, the membranes were incubated with the specific primary antibodies diluted appropriately in Tris-buffered saline, 1% milk, 0.1% Tween-20 for 12-15 hours at 4° C. For albumin detection, membranes were incubated with an anti-albumin-HRP antibody (EY Laboratories) for 1 hour at room temperature. After removal of the unbound antibodies with three 10-minute washes in Tris-buffered saline-0.1% Tween-20, the membranes (except for albumin detection) were incubated with the anti-goat-HRP (1:2000) or anti-mouse HRP (1:5000) for 1 hour at room temperature. After three 10-minute washes with Tris-buffered saline-0.1% Tween-20, specifically bound HRP-conjugated antibodies were detected using the Amersham Enhanced Chemiluminescence Plus™ system. To re-probe a membrane with a different antibody, it was first incubated for 2.5 h in 0.1M glycine (pH 2.5) at room temperature. Immunohistochemical staining was performed with HRP-conjugated secondary antibodies as recommended by the supplier of primary detection antibodies. [table]

Lig-1 cells [11] = test: Differentiation marker expression, Xs-free conditions, Lig-1; set-up: key: −: no expression detected; +/−: weak expression; +: expression detected; !: increased expression in Xs-free conditions; *: no increased expression in Xs-free conditions; settings: in situ immunofluorescence, confluent growth arrest in 1% serum 1-2 weeks
Lig-3 cells [12] = test: Differentiation marker expression, Xs-free conditions, Lig-3; set-up: key: −: no expression detected; +/−: weak expression; +: expression detected; !: increased expression in Xs-free conditions; *: no increased expression in Xs-free conditions; settings: in situ immunofluorescence, confluent growth arrest in 1% serum 1-2 weeks
[13] = 50 μM xanthosine, 200 cells per well, 14 days
[14] = colony formation efficiency, 50 μM xanthosine vs Xs-free
[15] = in situ immunofluorescence, confluent growth arrest in 1% serum 1-2 weeks

For `O=c1[nH]c(=O)c2ncn([C@@H]3O[C@H](CO)[C@@H](O)[C@H]3O)c2[nH]1` [Xs, Xanthosine], the “Colony formation efficiency Xs+ (Mean % ± SD; n = 6)” value (Lig-1 cells [1]; [13]) was 9.8 ± 2.2%, the “Xs+/Xs− Ratio” value (Lig-1 cells [1]; [14]) was 0.9 and the “Colony formation efficiency Xs+ (Mean % ± SD; n = 6)” value (Lig-2 cells; [13]) was 29 ± 3.7%. The “Xs+/Xs− Ratio” value (Lig-2 cells; [14]) was 1.0, the “Colony formation efficiency Xs+ (Mean % ± SD; n = 6)” value (Lig-3 cells [2]; [13]) was 18 ± 3.7% and the “Xs+/Xs− Ratio” value (Lig-3 cells [2]; [14]) was 1.0. For the same compound, the “Colony formation efficiency Xs+ (Mean % ± SD; n = 6)” value (Lig-4 cells; Lig-4 (derived in 400 μM Xs), 50 μM xanthosine, 200 cells per well, 14 days) was 8.0 ± 1.1%, the “Xs+/Xs− Ratio” value (Lig-4 cells; Lig-4, colony formation efficiency, 50 μM xanthosine vs Xs-free) was 1.5 and the “Colony formation efficiency Xs+ (Mean % ± SD; n = 6)” value (Lig-6 cells; Lig-6 (derived in 400 μM Xs), 50 μM xanthosine, 200 cells per well, 14 days) was 5.3 ± 1.8%. The “Xs+/Xs− Ratio” value (Lig-6 cells; Lig-6, colony formation efficiency, 50 μM xanthosine vs Xs-free) was 1.4, the “Colony formation efficiency Xs+ (Mean % ± SD; n = 6)” value (Lig-7 cells; Lig-7 (derived in 400 μM Xs), 50 μM xanthosine, 200 cells per well, 14 days) was 6.7 ± 2.2% and the “Xs+/Xs− Ratio” value (Lig-7 cells; Lig-7, colony formation efficiency, 50 μM xanthosine vs Xs-free) was “≧22”. The “Colony formation efficiency Xs+ (Mean % ± SD; n = 6)” value (Lig-8 cells [3]; Lig-8 (derived in 400 μM Xs), 50 μM xanthosine, 200 cells per well, 14 days) was 22 ± 3.6%, the “Xs+/Xs− Ratio” value (Lig-8 cells [3]; Lig-8, colony formation efficiency, 50 μM xanthosine vs Xs-free) was 17 and the “Colony formation efficiency Xs+ (Mean % ± SD; n = 6)” value (Lig-9 cells [4]; Lig-9 (derived in 400 μM Xs), 50 μM xanthosine, 200 cells per well, 14 days) was 11 ± 2.6%. For the same compound, the “Xs+/Xs− Ratio” value (Lig-9 cells [4]; Lig-9, colony formation efficiency, 50 μM xanthosine vs Xs-free) was 1.1, the “Colony formation efficiency Xs+ (Mean % ± SD; n = 6)” value (Lig-13 cells [5]; Lig-13 (derived in 200 μM Xs), 50 μM xanthosine, 200 cells per well, 14 days) was 12 ± 2.7% and the “Xs+/Xs− Ratio” value (Lig-13 cells [5]; Lig-13, colony formation efficiency, 50 μM xanthosine vs Xs-free) was 40. For the same compound, the “increase in colony formation efficiency in Xs-supplemented medium” value (Lig-13 cells [5]; Lig-13, p<0.0001) was 40 fold, the “Colony formation efficiency Xs+ (Mean % ± SD; n = 6)” value (Lig-14 cells; Lig-14 (derived in 200 μM Xs), 50 μM xanthosine, 200 cells per well, 14 days) was 0.4 ± 0.67% and the “Xs+/Xs− Ratio” value (Lig-14 cells; Lig-14, colony formation efficiency, 50 μM xanthosine vs Xs-free) was 1.3. For the same compound, the “Colony formation efficiency Xs+ (Mean % ± SD; n = 6)” value (Lig-15 cells; Lig-15 (derived in 200 μM Xs), 50 μM xanthosine, 200 cells per well, 14 days) was 10 ± 1.6%, the “Xs+/Xs− Ratio” value (Lig-15 cells; Lig-15, colony formation efficiency, 50 μM xanthosine vs Xs-free) was 5.3 and the “estimated mean increase in colony formation efficiency in Xs-supplemented medium” value (Xs-derived cell lines) was 11 fold. For the same compound, the “growth of conventional cell lines with Xs” value (conventional cell lines) was “unaffected”, the “effect of Xs on terminal division fraction” value (Lig-9 cells [6]; 100 μM Xs) was “did not significantly affect” and the “Terminal Division Fraction” value (Lig-9 cells [6]; Xs+, 2-cell microcolonies with no division in 5 days, Xs− 0.58) was 0.47. For the same compound, the “fraction of double-BrdU(+) daughter pairs” value (Lig-8 cells [7]) was 76%, the “fraction of symmetric BrdU(+) daughter pairs” value (Lig-13 cells [8]) was 76% and the “Albumin (ALB) expression, change in Xs-free conditions” value (Lig-8 cells [9]; immunoblot) was “+!”. For the same compound, the “Cytokeratin 7 (CK7) expression, change in Xs-free conditions” value (Lig-8 cells [9]; immunoblot) was “+*”, the “α1-Antitrypsin (AAT) expression, change in Xs-free conditions” value (Lig-8 cells [9]; immunoblot) was “+!” and the “α-Fetoprotein (AFP) expression, change in Xs-free conditions” value (Lig-8 cells [9]; immunoblot) was “+!”. For the same compound, the “H.4 expression, change in Xs-free conditions” value (Lig-8 cells [9]; [15]) was “+!”, the “Albumin (ALB) expression, change in Xs-free conditions” value (Lig-13 cells [10]; immunoblot) was “+*” and the “Cytokeratin 7 (CK7) expression, change in Xs-free conditions” value (Lig-13 cells [10]; immunoblot) was “+!”. For the same compound, the “α1-Antitrypsin (AAT) expression, change in Xs-free conditions” value (Lig-13 cells [10]; immunoblot) was “+/−*”, the “α-Fetoprotein (AFP) expression, change in Xs-free conditions” value (Lig-13 cells [10]; immunoblot) was “+*” and the “H.4 expression, change in Xs-free conditions” value (Lig-13 cells [10]; [15]) was “+/−*”. The “H.4 expression, change in Xs-free conditions” value (Lig-1 cells [11]) was “+*” and the “H.4 expression, change in Xs-free conditions” value (Lig-3 cells [12]) was “+/−*”.
